The values that follow come from article PMC8062851, “2-Methoxyestradiol and its derivatives inhibit store-operated Ca^2+ entry in T cells: Identification of a new and potent inhibitor” (Biochimica et Biophysica Acta. Molecular Cell Research, 2021).

Entries after “also recorded” stand apart in the source; their conditions may differ. Where two headings read alike, the source gives them in different places.

Assay [1] deals with SOCE in human Jurkat T cells. The assay is described as follows: cells. It is filed as cell-based. As to conditions: Ca2+ free/Ca2+ re-addition protocol, plateau 425-475 s after re-addition of 1 mM Ca2+. Here is the method:
Jurkat T-lymphocytes, primary human CD4^+ T cells and H1299 cells were pelleted at 450 ×g for 5 min, rat TMBP at 300 ×g for 8 min at room temperature and were resuspended in 1 ml of either standard JMP medium (Jurkat, H1299 and human CD4^+ T cells) or standard DMEM based medium containing 10% fetal bovine serum (FBS) (v/v) (TMBP cells). Resting TMBP cells (day 5–7 after re-stimulation) after the second to fifth re-stimulation were thawed from liquid nitrogen 12 to 40 h prior to Fura2-loading. After pre-incubation for 5 min at 37 °C, cells were incubated with 4 μM Fura2-AM for 15 min at 37 °C. After addition of the dye, cells were kept in the dark. Afterwards, cells and the dye were diluted by addition of 4 ml standard medium and incubated for another 15 min. Cells were washed twice in Ca^2+ buffer (140 mM NaCl, 5 mM KCl, 1 mM MgSO4, 1 mM CaCl2, 1 mM NaH2PO4, 20 mM HEPES, 5.5 mM glucose; pH 7.4 (NaOH), sterile filtered) and were diluted to a concentration of 2*10^6 cells/ml. Subsequently, cells were kept at room temperature for 20 min for de-esterification before the start of the first measurement.
In experiments using a Ca^2+ free/Ca^2+ re-addition protocol, cells were pelleted as described for Fura2 loading and Ca^2+ buffer was exchanged by 1 ml nominal Ca^2+ free buffer (140 mM NaCl, 5 mM KCl, 1 mM MgSO4, 1 mM NaH2PO4, 20 mM HEPES, 5.5 mM glucose; pH 7.4 (NaOH), sterile filtered) immediately before starting the measurement. The measurement was controlled by FL Solutions (Version 4.1, Hitachi High-Technologies Corporation). Fura2 was alternatively excited every 2 s at 340 ± 5 nm and 380 ± 5 nm, each 400 ms apart.
Finally, every measurement was calibrated using 0.1% (v/v) Triton X-100 to obtain a maximal ratio and 4 mM EGTA and 30 mM Tris to obtain a minimal ratio.
R is the ratio between F340 and F380. Rmin and Rmax are the minimal and maximal ratio, respectively, obtained by calibration. F380 min and F380 max are the minimal and maximal fluorescence intensity at 380 nm EX during the calibration. Finally, artefacts due to compound additions that usually could easily be identified and lasted about 8 s were deleted from the tracings using FL Solutions (Version 4.1, Hitachi High-Technologies Corporation). The fluorescence intensities of deleted data points were interpolated from those just before and after the deleted time points.
Estradiol, 2ME2 and 2ME2 derivatives were dissolved in DMSO at a concentration of 50 mM and stored at −20 °C for up to 6 months. For concentration-response curves, stock solution was freshly diluted with DMSO to obtain the same DMSO concentration of 0.2% (v/v) for all conditions.
The compound concentrations were then log transformed. Finally, the data were fitted to a corresponding nonlinear fit of variable slope using Prism 6 (GraphPad Software, USA).

For another assay, the system named is IP3 receptors. The assay is described as follows: IP3-evoked Ca2+ release in permeabilized Jurkat T cells. To be noted: 2 μM IP3. It is filed as cell-based, human. As to the method: 3 ∗ 10^7 Jurkat T-lymphocytes per measurement were centrifuged at 450 ×g for 5 min at room temperature. The pellet was rinsed twice, each time using 10 ml permeabilization buffer 1 (120 mM KCl, 10 mM NaCl, 1.2 mM MgCl2, 0.533 mM CaCl2, 1 mM EGTA and 10 mM HEPES, pH 7.2 (KOH), sterile filtered). Subsequently, the pellet was resuspended in 2 ml permeabilization buffer 1 containing 80 μg/ml saponin (Fluka) and the cells were incubated for 10 min at 37 °C. Subsequently, the cells were centrifuged at 450 ×g for 5 min at room temperature and the cell pellet was washed once in 10 ml permeabilization buffer 2 (120 mM KCl, 10 mM NaCl, 1.2 mM MgCl2 and 10 mM HEPES, pH 7.2 (KOH), sterile filtered). Finally, the cells were taken up in 1 ml permeabilization buffer 2, placed into a cuvette and measured at the fluorescence spectrophotometer. Before the start of the measurement, 0.5 μl of 1 mM Fura2 free acid (dissolved in pure water, final concentration: 0.5 μM), 5 μl of 5 mg/ml creatinkinase (dissolved in permeabilization buffer 2, final concentration: 25 μg/ml, 20 U/ml, Roche) and 10 μl of 2 M creatin phosphate (dissolved in permeabilization buffer 2, final concentration: 20 mM, Calbiochem) were added. Fura2 was used to measure the Ca^2+ concentration and creatinkinase and creatin phosphate were used as ATP-regenerating system. The measurement was controlled by FL Solutions (Version 4.1, Hitachi High-Technologies Corporation). Fura2 was alternatively excited every 2 s at 340 ± 5 nm and 380 ± 5 nm, each 400 ms apart. Fluorescence intensity was measured at an emission wavelength of 495 ± 5 nm for both excitation wavelengths. […] Ca^2+ concentrations were calculated according to Grynkiewicz et al. as described earlier in Section 2.4.
As a quantitative read-out for inhibition of IP3 receptors, the peak [Ca^2+] after IP3 addition was subtracted from the mean [Ca^2+] between 25 and 75 s before IP3 addition (dPeak). […] The rate constant K of the fitted data was used as a quantitative read-out for SERCA pump activity and its inhibition.

As to `CCc1cc2c(cc1OS(N)(=O)=O)CC[C@@H]1[C@@H]2CC[C@]2(C)[C@@H](CC#N)CC[C@@H]12` [STX564, 2-ethyl-3-sulfamoyloxy-17β-cyanomethylestra-1,3,5(10)-triene], the IC50 is 1200 nM in assay [1] (Homo sapiens, Jurkat, read-out: IC50 of SOCE inhibition, Jurkat T cells) and roughly 1000 nM in assay [1] (read-out: IC50 of SOCE inhibition, Jurkat T cells). Moreover, the “effect on IP3-evoked Ca2+ release” value in the assay with IP3 receptors is on record as “Neither STX564 nor Synta66 affected IP3-evoked Ca^2+ release significantly; also recorded: did not inhibit the Ca^2+ release by IP3”.
